Assay [1] has as its target T1, AHR (Homo sapiens, UniProt P35869).
T1 construct: U87 MG glioblastoma cells (ATCC #HTB-14) endogenously expressing AHR; endogenous in cells; host or cells: U87 MG glioblastoma cells (ATCC #HTB-14)
T1 sequence (P35869 11-848): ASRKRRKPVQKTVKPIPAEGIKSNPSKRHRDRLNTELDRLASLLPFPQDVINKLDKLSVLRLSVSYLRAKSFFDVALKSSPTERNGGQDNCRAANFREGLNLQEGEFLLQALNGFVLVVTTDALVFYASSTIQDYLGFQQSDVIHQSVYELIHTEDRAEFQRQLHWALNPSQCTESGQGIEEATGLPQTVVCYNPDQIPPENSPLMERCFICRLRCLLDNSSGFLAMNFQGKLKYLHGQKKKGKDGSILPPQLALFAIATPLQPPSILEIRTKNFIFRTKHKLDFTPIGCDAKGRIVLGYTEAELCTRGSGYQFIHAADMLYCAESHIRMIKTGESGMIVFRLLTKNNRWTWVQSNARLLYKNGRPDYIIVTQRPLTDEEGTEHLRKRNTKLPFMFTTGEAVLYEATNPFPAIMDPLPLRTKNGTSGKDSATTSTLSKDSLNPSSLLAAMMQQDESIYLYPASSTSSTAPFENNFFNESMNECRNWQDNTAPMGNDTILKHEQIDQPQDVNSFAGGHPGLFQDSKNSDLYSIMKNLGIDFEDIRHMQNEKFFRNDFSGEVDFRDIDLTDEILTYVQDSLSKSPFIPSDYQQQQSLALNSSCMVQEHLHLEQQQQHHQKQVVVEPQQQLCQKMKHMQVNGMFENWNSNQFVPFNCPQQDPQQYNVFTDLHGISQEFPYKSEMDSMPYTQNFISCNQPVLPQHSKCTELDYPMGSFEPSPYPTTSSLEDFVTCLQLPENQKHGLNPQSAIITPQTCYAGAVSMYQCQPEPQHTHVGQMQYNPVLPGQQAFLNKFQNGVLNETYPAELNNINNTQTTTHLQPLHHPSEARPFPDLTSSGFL
Kind of assay: In vitro assay 1: antagonism in human cell line (AHR transactivation, firefly luciferase reporter, kynurenic acid prestimulated). In kind it is cell-based. Particulars: AHR Antagonism Human IC50 [M]. The gist of the method:
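Antagonism measured as loss of kynurenic acid-driven firefly luciferase from DRE reporter in stably transfected U87 MG cells; constitutive Renilla signal monitors cytotoxicity. Positive/negative control normalization, staurosporine 5 μM with 150 μM kynurenic acid as inhibition control; replicates given as mean or median.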
For orientation: Reporter assays use an easily measured gene product as a stand-in for the process of interest.

Assay [2] addresses T2, AHR (Mus musculus, UniProt P30561).
T2 sequence (P30561 1-848 P471L/N533S/M589L): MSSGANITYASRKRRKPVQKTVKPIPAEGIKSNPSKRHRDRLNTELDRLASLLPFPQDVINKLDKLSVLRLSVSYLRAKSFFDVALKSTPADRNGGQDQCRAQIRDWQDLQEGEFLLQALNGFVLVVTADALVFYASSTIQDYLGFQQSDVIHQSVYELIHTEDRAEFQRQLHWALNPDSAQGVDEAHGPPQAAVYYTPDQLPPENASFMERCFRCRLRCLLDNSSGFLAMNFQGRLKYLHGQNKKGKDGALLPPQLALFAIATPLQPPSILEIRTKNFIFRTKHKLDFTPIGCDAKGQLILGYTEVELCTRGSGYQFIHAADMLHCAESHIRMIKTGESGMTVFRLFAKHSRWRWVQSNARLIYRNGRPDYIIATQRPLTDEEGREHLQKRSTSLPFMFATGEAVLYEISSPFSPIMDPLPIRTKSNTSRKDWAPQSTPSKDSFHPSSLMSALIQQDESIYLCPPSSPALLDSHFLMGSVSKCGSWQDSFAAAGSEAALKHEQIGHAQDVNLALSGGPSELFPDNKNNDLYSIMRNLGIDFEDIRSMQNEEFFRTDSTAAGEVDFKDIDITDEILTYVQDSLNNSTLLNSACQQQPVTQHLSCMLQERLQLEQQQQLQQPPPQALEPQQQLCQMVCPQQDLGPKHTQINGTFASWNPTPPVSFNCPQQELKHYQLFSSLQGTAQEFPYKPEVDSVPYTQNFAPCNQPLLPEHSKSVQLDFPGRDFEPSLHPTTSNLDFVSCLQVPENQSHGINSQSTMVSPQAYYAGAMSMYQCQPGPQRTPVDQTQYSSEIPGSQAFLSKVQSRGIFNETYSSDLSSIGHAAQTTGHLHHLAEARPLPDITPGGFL
Kind of assay: In vitro assay 3: antagonism in mouse cell line (AHR transactivation, firefly luciferase reporter, kynurenic acid prestimulated). In kind it is cell-based. Particulars: mouse Hepa 1c1c7 cells, 200 μM kynurenic acid, 20 hours, read-out: AHR Antagonism Mouse IC50. The gist of the method: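 Kynurenic acid-prestimulated mouse reporter cells; stable AHR-inducible firefly luc construct with DRE sites in promoter. No-agonist wells = positive inhibition ctrl. Luminescence normalized to pos/neg ctrls; n>1 reported as mean or median.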

As to `Cn1ccc(-c2nc3c4cccc(C(F)(F)F)c4nc(N[C@@H]4CCCCNC4=O)n3n2)n1` [Example 735, (3R)-3-{[2-(1-methyl-1H-pyrazol-3-yl)-7-(trifluoromethyl)[1,2,4]triazolo[1,5-c]quinazolin-5-yl]amino}azepan-2-one], the IC50 against AHR [1] worked out at 7.1e-09 M; at AHR [2], 9.2 nM.
Regarding `O=C1NCCCC[C@H]1Nc1nc2c(C(F)(F)F)cccc2c2nc(-c3cnn(C(F)F)c3)nn12` [Example 736, (3R)-3-({2-[1-(difluoromethyl)-1H-pyrazol-4-yl]-7-(trifluoromethyl)[1,2,4]triazolo[1,5-c]quinazolin-5-yl}amino)azepan-2-one], the IC50 against AHR [1] turned out to be 7.84e-10 M; on AHR [2], 0.669 nM.
In the same order, the values of `O=C1NCCCC[C@H]1Nc1nc2c(C(F)(F)F)cccc2c2nc(-c3cc[nH]n3)nn12` [Example 737, (3R)-3-{[2-(1H-pyrazol-3-yl)-7-(trifluoromethyl)[1,2,4]triazolo[1,5-c]quinazolin-5-yl]amino}azepan-2-one] are 7.64e-09 M and 15.1 nM.
As for `CCn1nc(C)c(-c2nc3c4cccc(C(F)(F)F)c4nc(N[C@@H]4CCCCNC4=O)n3n2)c1C` [Example 738, (3R)-3-{[2-(1-ethyl-3,5-dimethyl-1H-pyrazol-4-yl)-7-(trifluoromethyl)[1,2,4]triazolo[1,5-c]quinazolin-5-yl]amino}azepan-2-one], the IC50 against AHR [1] was 3.4e-09 M; at AHR [2], 1.03 nM.
Take `CN1CCCC[C@@H](Nc2nc3c(C(F)(F)F)cccc3c3nc(-c4cnn(C)c4)nn23)C1=O` [Example 739, (3R)-1-methyl-3-{[2-(1-methyl-1H-pyrazol-4-yl)-7-(trifluoromethyl)[1,2,4]triazolo[1,5-c]quinazolin-5-yl]amino}azepan-2-one]: the IC50 came to 6.64e-10 M at AHR [1] and 1.4 nM on AHR [2].
In the same order, the values of `Cc1cc(-c2nc3c4cccc(C(F)(F)F)c4nc(N[C@@H]4CCCCNC4=O)n3n2)n(C)n1` [Example 740, (3R)-3-{[2-(1,3-dimethyl-1H-pyrazol-5-yl)-7-(trifluoromethyl)[1,2,4]triazolo[1,5-c]quinazolin-5-yl]amino}azepan-2-one] are 1.22e-09 M and 1.65 nM.
In the case of `O=C1NCCCC[C@H]1Nc1nc2c(C(F)(F)F)cccc2c2nc(-c3cnn(C4CCC4)c3)nn12` [Example 741, (3R)-3-{[2-(1-cyclobutyl-1H-pyrazol-4-yl)-7-(trifluoromethyl)[1,2,4]triazolo[1,5-c]quinazolin-5-yl]amino}azepan-2-one], the IC50 worked out at 7.02e-10 M against AHR [1] and 1.41 nM on AHR [2].
With `O=C1NCCCC[C@H]1Nc1nc2c(C(F)(F)F)cccc2c2nc(-c3cnn(CC4CC4)c3)nn12` [Example 742, (3R)-3-({2-[1-(cyclopropylmethyl)-1H-pyrazol-4-yl]-7-(trifluoromethyl)[1,2,4]triazolo[1,5-c]quinazolin-5-yl}amino)azepan-2-one], the IC50 turned out to be 8.31e-10 M at AHR [1] and 1.9 nM on AHR [2].
Taken in the same sequence, the figures for `O=C1NCCCC[C@H]1Nc1nc2c(C(F)(F)F)cccc2c2nc(-c3cn(C4CC4)nc3C(F)F)nn12` [Example 743, (3R)-3-({2-[1-cyclopropyl-3-(difluoromethyl)-1H-pyrazol-4-yl]-7-(trifluoromethyl)[1,2,4]triazolo[1,5-c]quinazolin-5-yl}amino)azepan-2-one] were 1.26e-09 M and 1.73 nM.
Turning to `O=C1NCCCC[C@H]1Nc1nc2c(C(F)(F)F)cccc2c2nc(-c3cnn(CC4CCC4)c3)nn12` [Example 744, (3R)-3-({2-[1-(cyclobutylmethyl)-1H-pyrazol-4-yl]-7-(trifluoromethyl)[1,2,4]triazolo[1,5-c]quinazolin-5-yl}amino)azepan-2-one], the IC50 against AHR [1] came to 1.69e-09 M; at AHR [2], 11.6 nM.
In the same order, the values of `Cc1nn(C2CC2)c(C)c1-c1nc2c3cccc(C(F)(F)F)c3nc(N[C@@H]3CCCCNC3=O)n2n1` [Example 745, (3R)-3-{[2-(1-cyclopropyl-3,5-dimethyl-1H-pyrazol-4-yl)-7-(trifluoromethyl)[1,2,4]triazolo[1,5-c]quinazolin-5-yl]amino}azepan-2-one] are 4.41e-09 M and 1.14 nM.
For `Cc1n[nH]cc1-c1nc2c3cccc(C(F)(F)F)c3nc(N[C@@H]3CCCCNC3=O)n2n1` [Example 746, (3R)-3-{[2-(3-methyl-1H-pyrazol-4-yl)-7-(trifluoromethyl)[1,2,4]triazolo[1,5-c]quinazolin-5-yl]amino}azepan-2-one], the IC50 stood at 7.48e-09 M against AHR [1] and 45.6 nM at AHR [2].
Take `Cc1nn(C(C)C)cc1-c1nc2c3cccc(C(F)(F)F)c3nc(N[C@@H]3CCCCNC3=O)n2n1` [Example 748, (3R)-3-({2-[3-methyl-1-(propan-2-yl)-1H-pyrazol-4-yl]-7-(trifluoromethyl)[1,2,4]triazolo[1,5-c]quinazolin-5-yl}amino)azepan-2-one]: the concentration for half-maximal inhibition (IC50) on AHR [1] was found to be 3.9e-10 M; on AHR [2], 0.656 nM.
For `CCc1nn(C2CC2)cc1-c1nc2c3cccc(C(F)(F)F)c3nc(N[C@@H]3CCCCNC3=O)n2n1` [Example 749, (3R)-3-{[2-(1-cyclopropyl-3-ethyl-1H-pyrazol-4-yl)-7-(trifluoromethyl)[1,2,4]triazolo[1,5-c]quinazolin-5-yl]amino}azepan-2-one], the IC50 turned out to be 1.54e-09 M against AHR [1] and 2.12 nM at AHR [2].
In the same order, the values of `Cc1nn(C)c(C)c1-c1nc2c3cccc(C(F)(F)F)c3nc(N[C@@H]3CCCCNC3=O)n2n1` [Example 750, (3R)-3-{[7-(trifluoromethyl)-2-(1,3,5-trimethyl-1H-pyrazol-4-yl)[1,2,4]triazolo[1,5-c]quinazolin-5-yl]amino}azepan-2-one] are 3.56e-09 M and 1.41 nM.
`CCCCNC(=O)[C@@H](C)Nc1nc2c(C(F)(F)F)cccc2c2nc(-c3cnn(C)c3)nn12` [Example 751, N-butyl-N^2-[2-(1-methyl-1H-pyrazol-4-yl)-7-(trifluoromethyl)[1,2,4]triazolo[1,5-c]quinazolin-5-yl]-D-alaninamid]: the IC50 was 1.47e-08 M on AHR [1] and 54.7 nM on AHR [2].
With `COc1cccc2c1nc(N[C@@H]1CCCCNC1=O)n1nc(-c3cnn(C)c3)nc21` [Example 752, (3R)-3-{[7-methoxy-2-(1-methyl-1H-pyrazol-4-yl)[1,2,4]triazolo[1,5-c]quinazolin-5-yl]amino}azepan-2-one], the IC50 was 2.29e-07 M against AHR [1] and 953 nM on AHR [2].
On to `CCn1cc(-c2nc3c4cccc(OC)c4nc(N[C@@H]4CCCCNC4=O)n3n2)c(C)n1` [Example 753, (3R)-3-{[2-(1-ethyl-3-methyl-1H-pyrazol-4-yl)-7-methoxy[1,2,4]triazolo[1,5-c]quinazolin-5-yl]amino}azepan-2-one], for which the IC50 against AHR [1] is 9.89e-09 M; at AHR [2] it was 40.6 nM.
Regarding `CCn1cc(-c2nc3c4cccc(OC)c4nc(N[C@@H]4CCCCNC4=O)n3n2)cn1` [Example 754, (3R)-3-{[2-(1-ethyl-1H-pyrazol-4-yl)-7-methoxy[1,2,4]triazolo[1,5-c]quinazolin-5-yl]amino}azepan-2-one], the figures for the IC50 against AHR [1] and at AHR [2] were 7.97e-08 M and 292 nM, respectively.

The IC50 is the concentration that inhibits the measured activity by half.

The values are drawn from US20230113037A1 (Bayer Aktiengesellschaft, priority 2019, published 2023).
